This data set is described as follows: Solubility of HMR 3647. It is filed as physicochemical. The method, then: HMR 3647 has the chemical formula C43H65N5O10 and has a molecular weight of 812.0 g/mol. […] At acidic pH, the solubility can be increased to 80 mg/ml, since the protonated cation is formed at this pH.

In brackets after ≈: the same amount, converted by molar mass.

A word on the solubility: it is the dissolved amount per volume that the medium holds. High values mean much dissolved substance, low ones little dissolved substance. For the molecule `CC[C@H]1OC(=O)[C@H](C)C(=O)[C@H](C)[C@@H](O[C@@H]2O[C@H](C)C[C@H](N(C)C)[C@H]2O)[C@](C)(OC)C[C@@H](C)C(=O)[C@H](C)[C@H]2N(CCCCn3cnc(-c4cccnc4)c3)C(=O)O[C@]12C` [HMR 3647], the solubility (aqueous medium at acidic pH, aqueous buffer, acidic pH, protonated cation) was 80 mg/mL (≈ 98.5 mM). Besides, the water solubility result (water) was “very poorly water-soluble”.

Values taken from patent publication US20040241239A1, “Mixed complexes for masking the taste of bitter active substances” (priority 2001, published 2004).
